Source: ChEMBL document CHEMBL4507266, “Data for DCP probe BAY-784” (2021)

Assays:
[1] = target: Mitogen-activated protein kinase kinase kinase 15 (Homo sapiens) (UniProt Q6ZN16); conditions: Compound concentration 1000.0 nM
[2] = target: Mitogen-activated protein kinase 12 (Homo sapiens) (UniProt P53778); conditions: Compound concentration 1000.0 nM
[3] = tested on: Mast/stem cell growth factor receptor Kit (Homo sapiens), P10721 [A829P]; conditions: Compound concentration 1000.0 nM
[4] = target: Bone morphogenetic protein receptor type-1A (Homo sapiens) (UniProt P36894); conditions: Compound concentration 1000.0 nM
[5] = target: Ribosomal protein S6 kinase alpha-2 (Homo sapiens) (UniProt Q15349); conditions: Compound concentration 1000.0 nM
[6] = target: cGMP-dependent protein kinase 1 (Homo sapiens) (UniProt Q13976); conditions: Compound concentration 1000.0 nM
[7] = target: Platelet-derived growth factor receptor alpha (Homo sapiens) (UniProt P16234); conditions: Compound concentration 1000.0 nM
Sequence of Platelet-derived growth factor receptor alpha (Homo sapiens) (P16234 whole entry, canonical isoform): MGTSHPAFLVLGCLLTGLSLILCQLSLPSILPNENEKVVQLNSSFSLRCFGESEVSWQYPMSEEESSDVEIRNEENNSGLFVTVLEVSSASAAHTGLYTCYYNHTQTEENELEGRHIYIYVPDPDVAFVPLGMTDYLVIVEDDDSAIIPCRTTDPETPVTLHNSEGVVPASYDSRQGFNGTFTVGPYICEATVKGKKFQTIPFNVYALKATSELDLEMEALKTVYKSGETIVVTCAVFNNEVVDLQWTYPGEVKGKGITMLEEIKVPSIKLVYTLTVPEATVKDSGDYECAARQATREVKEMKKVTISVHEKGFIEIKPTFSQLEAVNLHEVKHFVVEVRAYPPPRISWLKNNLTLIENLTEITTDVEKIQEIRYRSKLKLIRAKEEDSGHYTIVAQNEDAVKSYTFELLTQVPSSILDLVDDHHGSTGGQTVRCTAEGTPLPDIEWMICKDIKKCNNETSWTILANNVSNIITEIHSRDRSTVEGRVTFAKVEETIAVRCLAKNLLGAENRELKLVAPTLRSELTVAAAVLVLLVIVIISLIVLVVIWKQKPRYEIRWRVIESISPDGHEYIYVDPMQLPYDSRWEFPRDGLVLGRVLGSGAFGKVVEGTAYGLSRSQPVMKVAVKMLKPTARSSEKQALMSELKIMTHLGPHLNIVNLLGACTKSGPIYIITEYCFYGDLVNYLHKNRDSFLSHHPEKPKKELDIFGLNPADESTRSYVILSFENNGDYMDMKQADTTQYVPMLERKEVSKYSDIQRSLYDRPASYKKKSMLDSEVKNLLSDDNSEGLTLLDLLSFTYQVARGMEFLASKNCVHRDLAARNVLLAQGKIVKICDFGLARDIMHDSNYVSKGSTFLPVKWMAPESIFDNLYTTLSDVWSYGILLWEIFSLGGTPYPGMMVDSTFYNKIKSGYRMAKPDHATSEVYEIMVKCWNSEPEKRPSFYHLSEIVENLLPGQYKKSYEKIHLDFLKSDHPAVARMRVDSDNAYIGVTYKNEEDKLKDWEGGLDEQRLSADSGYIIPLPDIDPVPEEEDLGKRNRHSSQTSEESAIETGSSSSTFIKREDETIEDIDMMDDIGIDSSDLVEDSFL

[8] = tested on: Phosphatidylinositol 4,5-bisphosphate 3-kinase catalytic subunit alpha isoform (Homo sapiens), P42336 [H1047Y]; conditions: Compound concentration 1000.0 nM
[9] = target: Interferon-induced, double-stranded RNA-activated protein kinase (Homo sapiens) (UniProt P19525); conditions: Compound concentration 1000.0 nM
[10] = target: Tyrosine-protein kinase JAK1 (Homo sapiens) (UniProt P23458); conditions: Compound concentration 1000.0 nM
[11] = target: MAP kinase-interacting serine/threonine-protein kinase 1 (Homo sapiens) (UniProt Q9BUB5); conditions: Compound concentration 1000.0 nM
[12] = target: Tyrosine-protein kinase Blk (Homo sapiens) (UniProt P51451); conditions: Compound concentration 1000.0 nM
[13] = target: Calcium/calmodulin-dependent protein kinase type 1B (Homo sapiens) (UniProt Q6P2M8); conditions: Compound concentration 1000.0 nM
[14] = target: Dual specificity tyrosine-phosphorylation-regulated kinase 1B (Homo sapiens) (UniProt Q9Y463); conditions: Compound concentration 1000.0 nM
Sequence of Dual specificity tyrosine-phosphorylation-regulated kinase 1B (Homo sapiens) (Q9Y463 whole entry, looked up): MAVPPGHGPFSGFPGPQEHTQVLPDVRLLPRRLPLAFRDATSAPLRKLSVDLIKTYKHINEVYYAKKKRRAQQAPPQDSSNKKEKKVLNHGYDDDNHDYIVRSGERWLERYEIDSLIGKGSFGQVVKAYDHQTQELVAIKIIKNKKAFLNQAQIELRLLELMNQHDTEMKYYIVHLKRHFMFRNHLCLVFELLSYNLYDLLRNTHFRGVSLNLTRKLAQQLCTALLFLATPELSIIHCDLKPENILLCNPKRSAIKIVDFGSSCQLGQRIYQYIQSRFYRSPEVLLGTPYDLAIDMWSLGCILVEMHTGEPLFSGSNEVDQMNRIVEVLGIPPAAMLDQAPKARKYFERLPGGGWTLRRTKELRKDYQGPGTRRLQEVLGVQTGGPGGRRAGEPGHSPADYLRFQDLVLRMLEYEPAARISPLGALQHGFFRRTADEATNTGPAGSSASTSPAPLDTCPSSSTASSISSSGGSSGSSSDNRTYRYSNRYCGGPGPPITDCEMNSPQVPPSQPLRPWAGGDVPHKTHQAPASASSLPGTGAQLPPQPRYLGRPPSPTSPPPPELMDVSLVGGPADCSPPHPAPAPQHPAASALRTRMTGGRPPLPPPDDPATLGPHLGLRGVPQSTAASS

[15] = target: Inhibitor of nuclear factor kappa-B kinase subunit alpha (Homo sapiens) (UniProt O15111); conditions: Compound concentration 1000.0 nM
[16] = target: Phosphatidylinositol 4-phosphate 3-kinase C2 domain-containing subunit beta (Homo sapiens) (UniProt O00750); conditions: Compound concentration 1000.0 nM
[17] = target: Delta-type opioid receptor (Homo sapiens) (UniProt P41143); conditions: Compound concentration 10.0 uM
[18] = target: Serine/threonine-protein kinase VRK2 (Homo sapiens) (UniProt Q86Y07); conditions: Compound concentration 1000.0 nM
[19] = tested on: Receptor-type tyrosine-protein kinase FLT3 (Homo sapiens), P36888 [UNDEFINED MUTATION]; conditions: Compound concentration 1000.0 nM
[20] = tested on: Epidermal growth factor receptor (Homo sapiens), P00533 [UNDEFINED MUTATION]; conditions: Compound concentration 1000.0 nM
Sequence of Epidermal growth factor receptor (Homo sapiens), P00533 [UNDEFINED MUTATION] (P00533 whole entry, looked up, change not shown): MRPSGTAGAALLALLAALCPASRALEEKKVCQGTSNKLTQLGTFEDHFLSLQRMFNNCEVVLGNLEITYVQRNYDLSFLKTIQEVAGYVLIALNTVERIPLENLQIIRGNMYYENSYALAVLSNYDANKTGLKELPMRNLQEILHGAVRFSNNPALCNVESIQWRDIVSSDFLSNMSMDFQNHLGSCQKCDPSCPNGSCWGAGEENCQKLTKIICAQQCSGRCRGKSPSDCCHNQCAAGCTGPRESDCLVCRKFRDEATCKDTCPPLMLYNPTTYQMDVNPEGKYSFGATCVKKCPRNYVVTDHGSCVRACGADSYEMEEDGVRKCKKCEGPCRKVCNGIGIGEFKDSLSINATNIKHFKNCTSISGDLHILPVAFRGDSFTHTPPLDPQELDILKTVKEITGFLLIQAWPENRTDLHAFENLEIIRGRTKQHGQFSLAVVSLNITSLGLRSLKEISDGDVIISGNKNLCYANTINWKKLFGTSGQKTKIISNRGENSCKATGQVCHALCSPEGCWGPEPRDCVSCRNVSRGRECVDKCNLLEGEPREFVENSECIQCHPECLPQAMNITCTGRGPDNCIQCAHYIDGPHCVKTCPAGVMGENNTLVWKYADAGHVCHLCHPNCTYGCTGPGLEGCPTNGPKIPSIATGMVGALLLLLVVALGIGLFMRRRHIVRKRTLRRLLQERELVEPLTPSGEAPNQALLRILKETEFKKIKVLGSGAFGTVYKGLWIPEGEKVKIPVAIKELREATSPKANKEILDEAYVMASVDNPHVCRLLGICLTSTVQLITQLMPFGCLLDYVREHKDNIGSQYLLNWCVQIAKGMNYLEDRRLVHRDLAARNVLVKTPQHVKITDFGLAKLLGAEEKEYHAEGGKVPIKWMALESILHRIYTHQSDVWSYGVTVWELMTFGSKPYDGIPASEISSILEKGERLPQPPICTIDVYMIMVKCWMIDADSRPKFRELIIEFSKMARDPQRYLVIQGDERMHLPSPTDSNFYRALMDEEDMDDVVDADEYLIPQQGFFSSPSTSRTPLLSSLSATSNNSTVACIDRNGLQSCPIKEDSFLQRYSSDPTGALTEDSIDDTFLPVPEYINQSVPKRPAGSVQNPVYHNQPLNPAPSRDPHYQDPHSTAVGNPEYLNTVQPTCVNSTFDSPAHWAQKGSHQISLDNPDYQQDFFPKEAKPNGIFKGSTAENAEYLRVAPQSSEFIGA

[21] = target: Cyclin-dependent kinase 17 (Homo sapiens) (UniProt Q00537); conditions: Compound concentration 1000.0 nM
[22] = target: Serine/threonine-protein kinase tousled-like 2 (Homo sapiens) (UniProt Q86UE8); conditions: Compound concentration 1000.0 nM
[23] = target: Mitogen-activated protein kinase kinase kinase 9 (Homo sapiens) (UniProt P80192); conditions: Compound concentration 1000.0 nM
[24] = target: Serine/threonine-protein kinase D1 (Homo sapiens) (UniProt Q15139); conditions: Compound concentration 1000.0 nM
[25] = target: Phosphatidylinositol 4-phosphate 5-kinase type-1 gamma (Homo sapiens) (UniProt O60331); conditions: Compound concentration 1000.0 nM
Sequence of Phosphatidylinositol 4-phosphate 5-kinase type-1 gamma (Homo sapiens) (O60331 whole entry, canonical isoform): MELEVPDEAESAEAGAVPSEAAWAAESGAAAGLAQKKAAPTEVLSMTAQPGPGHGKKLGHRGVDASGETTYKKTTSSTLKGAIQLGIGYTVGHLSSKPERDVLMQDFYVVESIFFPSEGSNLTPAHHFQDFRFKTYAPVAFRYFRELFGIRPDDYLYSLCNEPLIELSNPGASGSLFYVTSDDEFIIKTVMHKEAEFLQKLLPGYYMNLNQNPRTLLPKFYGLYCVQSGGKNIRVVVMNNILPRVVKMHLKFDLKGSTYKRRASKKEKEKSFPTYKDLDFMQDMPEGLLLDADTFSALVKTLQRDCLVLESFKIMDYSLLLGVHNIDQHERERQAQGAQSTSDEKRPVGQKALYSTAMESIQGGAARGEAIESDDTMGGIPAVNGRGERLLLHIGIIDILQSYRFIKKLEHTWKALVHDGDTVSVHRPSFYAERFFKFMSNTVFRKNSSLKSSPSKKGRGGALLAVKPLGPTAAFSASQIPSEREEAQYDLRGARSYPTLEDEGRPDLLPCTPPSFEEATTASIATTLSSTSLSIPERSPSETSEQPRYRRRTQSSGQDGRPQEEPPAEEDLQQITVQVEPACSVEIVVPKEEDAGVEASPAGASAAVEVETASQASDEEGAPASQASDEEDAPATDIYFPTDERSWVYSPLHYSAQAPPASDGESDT

[26] = tested on: Phosphatidylinositol 4,5-bisphosphate 3-kinase catalytic subunit alpha isoform (Homo sapiens), P42336 [C420R]; conditions: Compound concentration 1000.0 nM
[27] = target: T1, Muscarinic acetylcholine receptor M2 (Homo sapiens) (UniProt P08172); conditions: Compound concentration 10.0 uM
T1 sequence (whole entry): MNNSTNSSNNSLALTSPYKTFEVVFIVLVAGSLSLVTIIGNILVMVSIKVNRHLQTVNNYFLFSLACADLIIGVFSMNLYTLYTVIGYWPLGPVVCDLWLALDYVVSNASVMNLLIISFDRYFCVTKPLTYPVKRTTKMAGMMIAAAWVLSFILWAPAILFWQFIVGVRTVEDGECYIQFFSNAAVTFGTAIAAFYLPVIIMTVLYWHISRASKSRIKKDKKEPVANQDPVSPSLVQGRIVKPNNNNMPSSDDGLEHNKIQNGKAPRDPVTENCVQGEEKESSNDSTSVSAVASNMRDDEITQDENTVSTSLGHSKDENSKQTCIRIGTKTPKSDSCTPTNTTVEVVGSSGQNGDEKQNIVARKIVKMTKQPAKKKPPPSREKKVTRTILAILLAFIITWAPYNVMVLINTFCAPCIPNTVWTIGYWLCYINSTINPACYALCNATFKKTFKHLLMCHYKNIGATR

[28] = target: Serine/threonine-protein kinase SIK1 (Homo sapiens) (UniProt P57059); conditions: Compound concentration 1000.0 nM
[29] = target: Serine/threonine-protein kinase/endoribonuclease IRE1 (Homo sapiens) (UniProt O75460); conditions: Compound concentration 1000.0 nM
[30] = target: Serine/threonine-protein kinase PRP4 homolog (Homo sapiens) (UniProt Q13523); conditions: Compound concentration 1000.0 nM
[31] = target: Calcium/calmodulin-dependent protein kinase type 1G (Homo sapiens) (UniProt Q96NX5); conditions: Compound concentration 1000.0 nM
[32] = target: Serine/threonine-protein kinase BRSK2 (Homo sapiens) (UniProt Q8IWQ3); conditions: Compound concentration 1000.0 nM
[33] = target: Mitogen-activated protein kinase kinase kinase kinase 5 (Homo sapiens) (UniProt Q9Y4K4); conditions: Compound concentration 1000.0 nM
[34] = target: Macrophage colony-stimulating factor 1 receptor (Homo sapiens) (UniProt P07333); conditions: Compound concentration 1000.0 nM
[35] = target: NUAK family SNF1-like kinase 1 (Homo sapiens) (UniProt O60285); conditions: Compound concentration 1000.0 nM
[36] = target: Cyclin-dependent kinase 4 (Homo sapiens) (UniProt P11802); conditions: Compound concentration 1000.0 nM
[37] = tested on: Epidermal growth factor receptor (Homo sapiens), P00533 [UNDEFINED MUTATION]; conditions: Compound concentration 1000.0 nM; remark: listed apart in the source

Sequence of Mitogen-activated protein kinase kinase kinase 15 (Homo sapiens) (Q6ZN16 whole entry): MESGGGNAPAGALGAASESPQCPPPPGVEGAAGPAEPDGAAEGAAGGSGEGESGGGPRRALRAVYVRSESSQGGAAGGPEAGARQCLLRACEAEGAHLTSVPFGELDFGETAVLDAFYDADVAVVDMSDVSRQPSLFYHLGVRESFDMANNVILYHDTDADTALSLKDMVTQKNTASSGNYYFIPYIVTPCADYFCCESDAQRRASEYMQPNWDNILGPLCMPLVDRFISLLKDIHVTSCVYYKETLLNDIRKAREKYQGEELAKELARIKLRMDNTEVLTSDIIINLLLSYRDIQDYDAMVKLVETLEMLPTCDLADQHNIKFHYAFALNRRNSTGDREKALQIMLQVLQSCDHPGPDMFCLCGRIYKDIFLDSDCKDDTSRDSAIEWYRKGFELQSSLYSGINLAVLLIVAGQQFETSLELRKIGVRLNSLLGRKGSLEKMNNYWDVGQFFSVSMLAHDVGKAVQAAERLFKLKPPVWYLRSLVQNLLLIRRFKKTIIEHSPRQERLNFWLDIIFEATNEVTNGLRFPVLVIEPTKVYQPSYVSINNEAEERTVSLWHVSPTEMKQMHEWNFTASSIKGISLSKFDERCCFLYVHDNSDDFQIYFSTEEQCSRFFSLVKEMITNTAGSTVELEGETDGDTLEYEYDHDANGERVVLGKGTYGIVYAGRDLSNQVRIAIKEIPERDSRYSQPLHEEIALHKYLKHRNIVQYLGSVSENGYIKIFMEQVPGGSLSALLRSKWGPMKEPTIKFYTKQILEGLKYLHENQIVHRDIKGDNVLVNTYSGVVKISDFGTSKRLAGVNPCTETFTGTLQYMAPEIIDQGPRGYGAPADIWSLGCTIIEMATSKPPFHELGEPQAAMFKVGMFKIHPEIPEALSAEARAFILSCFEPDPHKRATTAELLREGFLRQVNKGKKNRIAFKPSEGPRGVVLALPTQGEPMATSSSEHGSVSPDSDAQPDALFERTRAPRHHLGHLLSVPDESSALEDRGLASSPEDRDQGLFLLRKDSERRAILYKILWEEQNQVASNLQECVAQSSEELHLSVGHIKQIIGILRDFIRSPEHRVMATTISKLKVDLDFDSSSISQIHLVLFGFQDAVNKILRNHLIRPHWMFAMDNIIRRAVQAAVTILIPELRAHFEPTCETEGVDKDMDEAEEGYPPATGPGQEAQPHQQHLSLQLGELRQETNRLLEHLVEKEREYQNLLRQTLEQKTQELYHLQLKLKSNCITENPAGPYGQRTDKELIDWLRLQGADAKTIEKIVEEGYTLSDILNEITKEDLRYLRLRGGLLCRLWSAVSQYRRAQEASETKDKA

O=C(NCc1ncc(C(F)(F)F)cc1Cl)c1ccc2c(c1)C1(CCS(=O)(=O)CC1)[C@H](C1CC1)N2S(=O)(=O)c1ccc(F)cc1 [BAY-784]
inactive: residual activity [1] 96% | residual activity [2] 100% | residual activity [3] 92% | residual activity [4] 100% | residual activity [5] 99% | residual activity [6] 100% | residual activity [7] 90% | residual activity [8] 90% | residual activity [9] 100% | residual activity [10] 86% | residual activity [11] 74% | residual activity [12] 78% | residual activity [13] 91% | residual activity [14] 100% | residual activity [15] 77% | residual activity [16] 100% | inhibition [17] -0.34% | residual activity [18] 95% | residual activity [19] 81% | residual activity [20] 97% | residual activity [21] 100% | residual activity [22] 100% | residual activity [23] 100% | residual activity [24] 93% | residual activity [25] 100% | residual activity [26] 77% | inhibition [27] 8.38% | residual activity [28] 100% | residual activity [29] 78% | residual activity [30] 100% | residual activity [31] 98% | residual activity [32] 100% | residual activity [33] 82% | residual activity [34] 100% | residual activity [35] 83% | residual activity [36] 93% | residual activity [37] 97%

O=C(NCc1ncc(C(F)(F)F)cc1Cl)c1ccc2c(c1)C1(CCS(=O)(=O)CC1)[C@@H](C1CC1)N2S(=O)(=O)c1ccc(F)cc1 [BAY-786]
inactive: residual activity [1] 78% | residual activity [2] 94% | residual activity [3] 67% | residual activity [4] 100% | residual activity [5] 100% | residual activity [6] 100% | residual activity [7] 87% | residual activity [8] 85% | residual activity [9] 97% | residual activity [10] 85% | residual activity [11] 78% | residual activity [12] 100% | residual activity [13] 96% | residual activity [14] 100% | residual activity [15] 84% | residual activity [16] 90% | inhibition [17] -2.65% | residual activity [18] 98% | residual activity [19] 67% | residual activity [20] 69% | residual activity [21] 99% | residual activity [22] 100% | residual activity [23] 77% | residual activity [24] 76% | residual activity [25] 94% | residual activity [26] 77% | inhibition [27] 12.5% | residual activity [28] 89% | residual activity [29] 65% | residual activity [30] 84% | residual activity [31] 100% | residual activity [32] 100% | residual activity [33] 100% | residual activity [34] 74% | residual activity [35] 88% | residual activity [36] 80% | residual activity [37] 96%
